Patent US9121806B1, “Impedance spectroscopy-based cellular analysis device” (University of South Florida, priority 2007, dated 2015)

System: OvCa429 cells
Assay: Effect of trypsin on confluent OvCa429 cell culture monitored by impedance phase angle mapping
Type: cell-based
Details: 20 μl of trypsin added to culture medium after 5 h of monitoring, approximately 80% confluence, monitored over 18 h
Procedure: Ovarian cancer line OvCa429 were grown in M199 and MCDB 105 (1:1) (Sigma, St Louis, Mo.) supplemented with 10% fetal calf serum (Sigma), 2 mM L-glutamine, 100 units ml-1 penicillin and 100 μgml-1 streptomycin under 5% CO2, and 37 .C high-humidity atmosphere. The cell culture medium was changed every 2-3 days, depending on the rate of cell growth. Cells were sub-cultured using 1× trypsin solution directly on the multielectrode device Impedance data were taken at room temperature of about 22° C. After each recording the cells were placed back in to the incubator. The cell culture medium was not changed throughout the course of the experiment. Impedance measurements were recorded on two separate devices (control and variable) beginning at approximately 80% confluence of the OvCa culture. After 5 h of recording measurements at an interval of approximately 1 h, 20 μl of trypsin was added to the cell culture medium of variable. Trypsin was not added to the control. The impedance was recorded under room conditions and the devices were placed back in the incubator after each measurement frame.
In order to affirm the utility of impedance mapping for tracking physiological changes, the effect of trypsin on the confluent cell culture was analyzed. […] FIG. 6 is the phase angle mapping of control and trypsinized cultures monitored over a period of 18 h.

## trypsin
  effect of trypsin on the confluent cell culture (phase angle shape / cell detachment): detached the cells from the substrate
